For one experiment, the system named is Heidenhain pouch dogs. The experiment in a line: Gastric acid antisecretory activity in pentagastrin-stimulated Heidenhain pouch dogs. The settings on record: Canis lupus familiaris, iv, 1.5 h; 1 mg/kg intravenously, 90 min after start of pentagastrin infusion; lowest acid output after drug vs mean acid output immediately before drug; conscious fasted dogs; read-out: inhibited gastric acid secretion. It counts as in vivo, dog. Here is the method: The gastric acid antisecretory activity of compounds of the present invention was determined in overnight fasted, conscious Heidenhain pouch dogs. Pentagastrin (Pentavlon-Ayerst was used to stimulate acid output by continuous infusion into a superficial leg vein at doses earlier determined to stimulate near maximal acid output from the gastric pouch. Gastric juice was collected at 30 minute intervals following the start of a pentagastrin infusion and measured to the nearest 0.1 ml. Ten collections were taken for each dog during an experiment. Acid concentration was determined by titrating 1.0 ml of gastric juice to pH 7.4 with 0.1 N sodium hydroxide using an Autoburette and a glass electrode pH meter (Radiometer).
Drug or vehicle was given intraveneously 90 minutes following the start of the pentagastrin infusion, at a dose of 1 mg/kg. Gastric acid antisecretory effects were calculated by comparing the lowest acid output after drug administration with the mean acid output immediately before drug.

For the next experiment, the target named is T1, H2 -receptor (Cavia porcellus, UniProt P47747).
T1 construct: the heart removed and the right atria dissected free; from tissue; host or cells: isolated guinea pig right atria
T1 sequence (P47747 whole entry): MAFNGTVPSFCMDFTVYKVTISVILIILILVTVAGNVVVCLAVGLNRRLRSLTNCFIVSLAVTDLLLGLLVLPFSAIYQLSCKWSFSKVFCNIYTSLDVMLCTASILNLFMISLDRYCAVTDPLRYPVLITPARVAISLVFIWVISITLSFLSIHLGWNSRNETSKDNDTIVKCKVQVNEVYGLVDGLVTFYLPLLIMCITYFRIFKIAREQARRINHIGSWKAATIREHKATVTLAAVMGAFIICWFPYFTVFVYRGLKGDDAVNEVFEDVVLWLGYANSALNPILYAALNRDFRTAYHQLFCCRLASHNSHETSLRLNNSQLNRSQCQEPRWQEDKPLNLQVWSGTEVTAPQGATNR
The experiment in a line: Histamine-H2 antagonist activity in isolated guinea pig right atria. It counts as cell-based. The settings on record: histamine dose-response curve in presence and absence of antagonist, 32°; for Kb: Krebs-Henseleit buffer pH 7.4, read-out: pA2 (apparent dissociation constant of the H2-receptor antagonist) (converted). Here is the method: The histamine-H2 antagonist activity of compounds of the present invention was determined by the following procedure:
Guinea pigs are killed rapidly with a blow to the head, the heart removed and the right atria dissected free. Atria are suspended, isometrically, in a temperature-controlled (32°±2°) tissue bath (10 ml containing oxygenated (95% O2; 5% CO2) Krebs-Henseleit buffer (pH 7.4) and are allowed to stabilize approximately one hour during which time the tissue bath is flushed several times. Individual atrial contractions are followed with a force-displacement transducer connected to a cardiotachometer and Grass polygraph recorder. After obtaining a dose-response curve to histamine, the bath containing each atrium is flushed several times with fresh buffer and the atria re-equilibrated to basal rates. Following the return to basal rate, test compounds are added at selected final concentrations and the histamine dose-response curve is again determined in the presence of antagonist. Results are expressed as dose-ratios, the ratio of histamine concentrations required to produce one-half of maximal stimulation in the presence and absence of antagonist, and the apparent dissociation constant of the H2 -receptor antagonist pA2, is determined.

Counter-ions that a name gives are not always drawn.

Consider `CCCNc1nc(-c2csc(NC(=N)N)n2)c[nH]1` [Example 23, 2-(Guanidino-4-(2-N-n-propylamino-4-imidazoyl)thiazoledihydrochloride], for which the inhibition at 1 mg/kg in the experiment on Heidenhain pouch dogs was no less than 15%. In addition, the Kb at H2 -receptor was less than 2 µM.
With `N=C(N)Nc1nc(-c2c[nH]c(N)n2)cs1` [Example 20, 2-Guanidino-4-(2-amino-4-imidazolyl)thiazole], the inhibition at 1 mg/kg with Heidenhain pouch dogs is no less than 15%.
Consider `CCCc1n[nH]c(-c2csc(NC(=N)N)n2)n1` [Example 15, 2-Guanidino-4-(3-propyl-5-1,2,4-triazolyl)thiazole hemihydrate], for which, in the experiment on Heidenhain pouch dogs, the inhibition at 1 mg/kg is no less than 15%. The Kb at H2 -receptor is less than 2 µM.
With `N=C(N)Nc1nc(-c2cscn2)cs1` [Example 5, 2-Guanidino-4-(4-thiazolyl)thiazole], the inhibition at 1 mg/kg in the experiment on Heidenhain pouch dogs is no less than 15%. Also, the Kb on H2 -receptor is less than 2 µM.
As to `N=C(N)Nc1nc(-c2c[nH]c(CO)n2)cs1` [Example 50, 2-Guanidino-4-(2-hydroxymethyl-4-imidazolyl)thiazole hydrobromide], the inhibition at 1 mg/kg in the experiment on Heidenhain pouch dogs is no less than 15%. For the same compound, on H2 -receptor, the Kb was less than 2 µM.
The corresponding values for `CC(=O)Nc1nc(-c2csc(NC(=N)N)n2)cs1` [Example 7, 2-Guanidino-4-(2-N-acetylamino-4-thiazoyl)thiazole] are no less than 15% and less than 2 µM.
Take `Cc1n[nH]c(-c2csc(NC(=N)N)n2)n1` [Example 13, 2-Guanidino-4-(3-methyl-5-1,2,4-triazolyl)thiazole hemihydrate]: the inhibition at 1 mg/kg with Heidenhain pouch dogs is no less than 15%.
Same read-out and setting: as for `N=C(N)Nc1nc(-c2nc(N)n[nH]2)cs1` [Example 11, 2-Guanidino-4-(3-amino-5-1,2,4-triazolyl)thiazole], the figure is no less than 15%.
Take `Cc1ncc(-c2csc(N=C(N)N)n2)[nH]1` [Example 37, 2-Guanidino-4-(2-methyl-4-imidazolyl)thiazole]: the inhibition at 1 mg/kg in the experiment on Heidenhain pouch dogs is no less than 15%. Besides, the Kb at H2 -receptor is less than 2 µM.
The matching figures for `CCNc1nc(-c2csc(NC(=N)N)n2)c[nH]1` [Example 22, 2-Guanidino-4-(2-N-ethylamino-4-imidazoyl)thiazole dihydrochloride]: no less than 15% and less than 2 µM.
Regarding `N=C(N)Nc1nc(-c2c[nH]c(Nc3ccccc3)n2)cs1` [Example 46, 2-Guanidino-4-(2-N-phenylamino-4-imidazolyl)thiazole], the Kb at H2 -receptor is less than 2 µM.
`CNc1nc(-c2csc(NC(=N)N)n2)cs1` [Example 6, 2-Guanidino-4-(2-N-methylamino-4-thiazoyl)thiazole]: the inhibition at 1 mg/kg with Heidenhain pouch dogs is no less than 15%. Also, at H2 -receptor, the Kb was less than 2 µM.
Turning to `N=C(N)Nc1nc(-c2c[nH]cn2)cs1` [Example 31, 2-Guanidino-4-(4-imidazoyl)thiazole hydrobromide], the inhibition at 1 mg/kg in the experiment with Heidenhain pouch dogs is no less than 15%.
As to `N=C(N)Nc1nc(-c2c[nH]c(NCc3ccccc3)n2)cs1` [Example 26, 2-Guanidino-4-(2-N-benzylamino-4-imidazoyl)thiazole dihydrochloride], the inhibition at 1 mg/kg in the experiment on Heidenhain pouch dogs was no less than 15%. For the same compound, the Kb at H2 -receptor was less than 2 µM.
In the case of `N=C(N)Nc1nc(-c2csc(N)n2)cs1` [Example 4, 2-Guanidino-4-(2-amino-4-thiazolyl)thiazole dihydrobromide], the inhibition at 1 mg/kg in the experiment with Heidenhain pouch dogs is no less than 15%. The Kb at H2 -receptor was less than 2 µM.
With `Cc1nc[nH]c1-c1csc(NC(=N)N)n1` [Example 41, 2-Guanidino-4-(4-methyl-5-imidazolyl)thiazole hydrobromide], the inhibition at 1 mg/kg in the experiment on Heidenhain pouch dogs is no less than 15%. In addition, the Kb on H2 -receptor was less than 2 µM.
As to `CC(C)Nc1nc(-c2csc(NC(=N)N)n2)c[nH]1` [Example 24, 2-Guanidino-4-(2-N-i-propylamino-4-imidazoyl)thiazole dihydrochloride], in the experiment with Heidenhain pouch dogs, the inhibition at 1 mg/kg was no less than 15%. At H2 -receptor, the Kb is less than 2 µM.
In the case of `CC(=O)Nc1nc(-c2csc(NC(=N)N)n2)c[nH]1` [Example 28, 2-Guanidino-4-(2-N-acetamido-4-imidazoyl)thiazole], the inhibition at 1 mg/kg in the experiment with Heidenhain pouch dogs was no less than 15%. For the same compound, at H2 -receptor, the Kb was less than 2 µM.
`CCCCNc1nc(-c2csc(NC(=N)N)n2)c[nH]1` [Example 25, 2-Guanidino-4-(2-N-n-butylamino-4-imidazoyl)thiazole dihydrochloride]: the inhibition at 1 mg/kg in the experiment on Heidenhain pouch dogs is no less than 15%. Besides, the Kb on H2 -receptor was less than 2 µM.
Regarding `Cc1nc(C)c(-c2csc(NC(=N)N)n2)[nH]1` [Example 45, 2-Guanidino-4-(2,4-dimethyl-4-imidazolyl)thiazole hydrobromide hemihydrate], the inhibition at 1 mg/kg in the experiment on Heidenhain pouch dogs is no less than 15%. In addition, the “pA2 (apparent dissociation constant of the H2-receptor antagonist)” value at H2 -receptor (Krebs-Henseleit buffer pH 7.4) is “greater than 5.7”.
For the compound `N=C(N)Nc1nc(-c2c[nH]c(NCCc3ccccc3)n2)cs1` [Example 27, 2-Guanidino-4-(2-N-phenethylamino-4-imidazoyl)thiazole dihydrochloride], the inhibition at 1 mg/kg in the experiment with Heidenhain pouch dogs was no less than 15%. Besides, at H2 -receptor, the Kb is less than 2 µM.
As to `CCc1n[nH]c(-c2csc(NC(=N)N)n2)n1` [Example 17, 2-Guanidino-4-(3-ethyl-5-1,24-triazolyl)thiazole], in the experiment with Heidenhain pouch dogs, the inhibition at 1 mg/kg is no less than 15%. The Kb at H2 -receptor is less than 2 µM.
`CNc1nc(-c2csc(NC(=N)N)n2)c[nH]1` [Example 21, 2-Guanidino-4-(2-N-methylamino-4-imidazoyl)thiazole dihydrochloride]: in the experiment on Heidenhain pouch dogs, the inhibition at 1 mg/kg was no less than 15%. The Kb on H2 -receptor was less than 2 µM.

The values above are taken from patent US4374843A, “2-Guanidino-4-heteroarylthiazoles” (Pfizer Inc., priority 1981, dated 1983).
